# Test results published in PMC10251509, “Ultrafast Fragment Screening Using Photo-Hyperpolarized (CIDNP) NMR” (Journal of the American Chemical Society, 2023).
# Target: T1, PIN1 (Homo sapiens, UniProt Q13526)
# T1 construct: polyhistidine (N); made in house; host or cells: Escherichia coli BL21 (DE3)
# Assay: automated flow-through photo-CIDNP 1D 1H NMR screening against PIN1
# Format: binding
# Details: flow cell, 50 μM compound, 20 μM PIN1, 1.5 s irradiation
# Description: While several other hyperpolarization methods yield higher SNE and have been established for ligand binding detection, their implementation into a highly automated system remains challenging.[43],[44] Photo-CIDNP hyperpolarization presents the advantage of being generated in situ, at room temperature, in solution, simply by shining light on the sample. To illustrate the agility of the photo-CIDNP ligand screening approach, we designed a flow-through setup compatible with a cryoprobe (Figure 7C). The setup consists of a pump, an autosampler, a valve, and a 3D printed flow cell (Figure 7B,C), which comprises an optic fiber for light irradiation coming from a 1.6 W diode laser emitting at 450 nm from Thorlabs. […] (iv) While the flow is stopped, a photo-CIDNP ^1H 1D NMR spectrum is recorded, as described above. […]
# Figure 7 Automated screening of PIN1 with Nmhare1.0 library using photo-CIDNP 1D ^1H NMR. […] The photo-CIDNP NMR experiment is then recorded with the pulse program triggering light irradiation, and subsequently performing the NMR experiment acquisition, the NMR experiment can comprehend different numbers of transients (NS) and indirect time dimension points (TD) that will increase the measurement time accordingly; finally, the sample is washed by restoring the flow in the fluidic connection. […]
# T1 sequence (Q13526 whole entry): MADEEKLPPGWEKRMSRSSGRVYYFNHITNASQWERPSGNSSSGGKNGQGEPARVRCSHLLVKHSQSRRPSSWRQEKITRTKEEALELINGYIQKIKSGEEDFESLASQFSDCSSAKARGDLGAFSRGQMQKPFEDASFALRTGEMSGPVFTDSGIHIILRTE
smiles,measurement,value
"Cc1cccc(-c2nc(C)c(C(=O)O)[nH]2)c1 [Compound 13, reference compound]",photo-CIDNP signal in presence vs absence of PIN1,signal reduction
